From PubChem BioAssay (NCI)
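Where inhibition never reached the appropriate level, the endpoint shown equals the highest concentration tested. Otherwise, values were interpolated linearly from a five-concentration, 48-hour dose response in 96-well plates. Here, GI50 denotes the concentration required for 50% inhibition of growth. TGI: concentration producing complete growth inhibition.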

Legend:
Test in all cases: growth of human tumour cells (NCI), 48 h
HCT-116 colon = test system: HCT-116 colon
OVCAR-5 ovarian = test system: OVCAR-5 ovarian
CAKI-1 renal = test system: CAKI-1 renal
SF-295 CNS = test system: SF-295 CNS
COLO 205 colon = test system: COLO 205 colon
HCC-2998 colon = test system: HCC-2998 colon
RXF 393 renal = test system: RXF 393 renal
MDA-MB-231 breast = test system: MDA-MB-231 breast
IGROV1 ovarian = test system: IGROV1 ovarian
SNB-19 CNS = test system: SNB-19 CNS

Structure (SMILES) | TGI (HCT-116 colon) [µM] | TGI (OVCAR-5 ovarian) [µM] | TGI (CAKI-1 renal) [µM] | TGI (SF-295 CNS) [µM] | TGI (COLO 205 colon) [µM] | TGI (HCC-2998 colon) [µM] | TGI (RXF 393 renal) [µM] | TGI (MDA-MB-231 breast) [µM] | TGI (IGROV1 ovarian) [µM] | TGI (SNB-19 CNS) [µM] | GI50 (HCT-116 colon) [µM] | GI50 (OVCAR-5 ovarian) [µM] | GI50 (CAKI-1 renal) [µM] | GI50 (SF-295 CNS) [µM] | GI50 (COLO 205 colon) [µM] | GI50 (HCC-2998 colon) [µM] | GI50 (RXF 393 renal) [µM] | GI50 (MDA-MB-231 breast) [µM] | GI50 (IGROV1 ovarian) [µM] | GI50 (SNB-19 CNS) [µM]
CC(C)(CCCCC(C)(C)NCC1COc2ccccc2O1)NCC1COc2ccccc2O1 (stereo not drawn) | > 10 | > 10 | > 10 | > 10 | 4.12 | 4.73 | 8.83 | > 10 | > 10 | > 10 | – | – | – | – | – | – | – | – | – | –
CCCCc1ccc(N2C(=O)c3cccnc3S2(=O)=O)cc1 | > 100 | > 100 | > 100 | > 100 | > 100 | > 100 | > 100 | > 100 | > 100 | > 100 | – | – | – | – | – | – | – | – | – | –
COC(=O)[C@]12CSC[C@H]1C[C@H](c1ccc(N(C)C)cc1)N2 | > 100 | > 100 | > 100 | > 100 | > 100 | > 100 | > 100 | > 100 | > 100 | > 100 | – | – | – | – | – | – | – | – | – | –
CNC(=S)NNC1=NCCCCN1 | > 100 | > 100 | > 100 | > 100 | > 100 | > 100 | > 100 | > 100 | > 100 | > 100 | – | – | – | – | – | – | – | – | – | –
Cc1cc(NCC2CC/C(=C\C=C\c3ccccc3)C2=O)no1 (stereo not drawn) | > 100 | > 100 | > 100 | > 100 | > 100 | > 100 | > 100 | > 100 | > 100 | > 100 | – | – | – | – | – | – | – | – | – | –
COc1cc(C2S/C(=C/c3ccccc3)C(=O)N2c2ccc([N+](=O)[O-])cc2)cc(OC)c1OC (stereo not drawn) | > 100 | > 100 | > 100 | > 100 | > 100 | > 100 | > 100 | > 100 | > 83.5 | > 100 | – | – | – | – | – | – | – | – | – | –
COC(=O)/C(C#N)=C(\Nc1ccccc1)N1CCCCC1 | > 100 | > 100 | > 100 | > 100 | > 100 | > 100 | > 100 | > 100 | > 100 | > 100 | – | – | – | – | – | – | – | – | – | –
CN(C)CCN1C(=O)c2ccccc2C1(O)c1ccc(Cl)cc1 (stereo not drawn) | > 100 | > 100 | > 100 | > 100 | > 100 | > 100 | 77.5 | > 100 | > 100 | > 100 | – | – | – | – | – | – | – | – | – | –
O=c1[nH]c(=O)n(C2CC(O)C(CO)O2)c2nc3ccc4ccccc4c3nc12 (stereo not drawn) | > 100 | > 100 | > 100 | > 100 | > 100 | > 100 | > 100 | > 100 | > 100 | > 100 | – | – | – | – | – | – | – | – | – | –
C/C(=N/NC(=S)N1CCCC1)c1cccc(/C(C)=N\NC(=S)N2CCCC2)n1 | 3.28 | 6.85 | 3.37 | 2.24 | > 100 | 2.86 | 3.18 | 3.23 | 37.1 | 12.1 | – | – | – | – | – | – | – | – | – | –
CCO/C(O)=C(/C(=N)N1CCCC1)C(=O)Nc1ccc(Cl)cc1 | > 100 | > 100 | > 100 | > 100 | > 100 | > 100 | > 100 | > 100 | > 100 | > 100 | – | – | – | – | – | – | – | – | – | –
CC(C)(C)C(=O)Nc1cccc(-c2ccc[nH]2)n1 | > 100 | > 100 | > 100 | > 100 | > 100 | > 100 | > 100 | > 100 | > 100 | > 100 | – | – | – | – | – | – | – | – | – | –
CCOn1cc(C2=C(c3c[nH]c4ccccc34)C(=O)NC2=O)c2ccccc21 | 4.03 | 17.2 | < 0.0306 | 0.0443 | – | < 0.01 | – | 26.4 | > 61.6 | 20.5 | < 0.0217 | 0.398 | < 0.0121 | 0.0156 | < 0.0439 | < 0.01 | < 0.0325 | 0.806 | 15.8 | < 0.0264
CN1CCC/C1=C1\C(=O)c2cccn2C1=O | > 100 | > 100 | > 100 | > 100 | > 100 | > 100 | > 100 | > 100 | > 100 | > 100 | – | – | – | – | – | – | – | – | – | –
CC(C)C(Cl)CC/C(CBr)=C(\Cl)CCl (stereo not drawn) | 8.35 | 31.2 | 17.9 | 30.6 | 12.8 | 26.7 | 11.3 | 8.36 | 4.09 | 28.3 | – | – | – | – | – | – | – | – | – | –
CC(Oc1ccc(Cl)cc1Cl)C(=O)NN1C(=O)CSC1c1ccc(Cl)cc1 (stereo not drawn) | > 100 | > 100 | 34.2 | > 100 | > 100 | > 100 | 83.4 | 97.4 | > 100 | > 100 | – | – | – | – | – | – | – | – | – | –
